Measurements as given in US10961198B2, “Farnesoid X receptor agonists and uses thereof” (Metacrine, Inc., priority 2017, dated 2021).

Target: hFXR (Homo sapiens (Human), UniProt Q96RI1)
Assay: In Vitro FXR Assay (TK)
Format: cell-based
Conditions: CV-1 cells transfected with hFXR, hRXR, TK-ECRE-luc and pCMX-YFP; incubated 18 hrs; luminescence; maximum efficacy <25% of the Fexarmine control classified as '+'
Description: Example B-1: In Vitro FXR Assay (TK)
CV-1 cells were seeded at a density of 2,000,000 cells in a T175 flask with DMEM+10% charcoal double-stripped FBS and incubated at 37° C. in 5% CO2 for 18 h (O/N).
After 18 h of incubation, the medium in the T175 flask was changed with fresh DMEM+10% charcoal super-stripped serum. In a polypropylene tube, 2500 μL OptiMEM (Life Technologies, Cat #31985-062) was combined with expression plasmids for hFXR, hRXR, TK-ECRE-luc and pCMX-YFP. The tube was then briefly vortexed and incubated at room temperature for 5 minutes. Transfection reagent (X-tremeGENE HP from Roche, Cat #06 366 236 001) was added to the OptiMEM/plasmid mixture vortexed and incubated at room temperature for 20 minutes. Following incubation, the transfection reagent/DNA mixture complex was added to cells in the T175 flask and the cells were incubated at 37° C. in 5% CO2 for 18 h (O/N).
Compounds were serially diluted in DMSO and added to transfected CV-1 cells. The cells were then incubated for 18 hrs. The next day cells were lysed and examined for luminescence.

Chain of hFXR (Q96RI1 whole entry): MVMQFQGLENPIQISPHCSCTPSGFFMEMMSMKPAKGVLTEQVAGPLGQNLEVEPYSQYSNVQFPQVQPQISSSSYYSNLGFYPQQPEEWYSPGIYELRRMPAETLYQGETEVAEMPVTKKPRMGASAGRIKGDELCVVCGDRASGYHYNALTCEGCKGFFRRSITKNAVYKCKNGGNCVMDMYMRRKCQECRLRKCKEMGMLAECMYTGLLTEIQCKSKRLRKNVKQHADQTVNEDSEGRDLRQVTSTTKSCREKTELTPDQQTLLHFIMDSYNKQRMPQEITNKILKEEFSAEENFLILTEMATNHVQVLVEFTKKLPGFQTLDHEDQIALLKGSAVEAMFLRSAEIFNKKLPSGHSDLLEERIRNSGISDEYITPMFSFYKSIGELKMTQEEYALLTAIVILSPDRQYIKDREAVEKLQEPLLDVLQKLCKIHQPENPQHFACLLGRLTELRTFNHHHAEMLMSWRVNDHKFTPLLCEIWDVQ
Chain of hFXR (P19793 whole entry partner): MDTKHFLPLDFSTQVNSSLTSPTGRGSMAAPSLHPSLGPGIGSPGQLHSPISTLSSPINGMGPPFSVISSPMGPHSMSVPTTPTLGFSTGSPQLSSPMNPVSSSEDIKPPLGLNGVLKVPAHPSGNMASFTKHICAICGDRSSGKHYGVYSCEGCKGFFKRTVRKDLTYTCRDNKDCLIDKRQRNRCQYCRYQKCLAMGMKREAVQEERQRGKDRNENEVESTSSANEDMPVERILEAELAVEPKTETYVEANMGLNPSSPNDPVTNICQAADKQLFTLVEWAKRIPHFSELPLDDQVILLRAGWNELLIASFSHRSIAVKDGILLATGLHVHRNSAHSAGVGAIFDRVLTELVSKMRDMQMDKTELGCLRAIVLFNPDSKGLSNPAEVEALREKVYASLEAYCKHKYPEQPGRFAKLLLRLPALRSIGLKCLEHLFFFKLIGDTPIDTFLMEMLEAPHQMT

| Structure (SMILES) | EC50 |
| --- | --- |
| COc1ccc([C@H]2CC[C@H](CN(c3cccc(-n4cc(C)cn4)c3)C(=O)[C@H]3CC[C@H](O)CC3)CC2)cc1C [Compound 1, trans-4-Hydroxy-N-((trans-4-(4-methoxy-3-methylphenyl)cyclohexyl)methyl)-N-(3-(4-methyl-1H-pyrazol-1-yl)phenyl)cyclohexanecarboxamide] | 250 to 1000 nM |
| CCn1cc(-c2cccc(N(C[C@H]3CC[C@H](c4ccc(OC)c(C#N)c4)CC3)C(=O)[C@H]3CC[C@H](O)CC3)c2)cn1 [Compound 2, trans-N-((trans-4-(3-Cyano-4-methoxyphenyl)cyclohexyl)methyl)-N-(3-(1-ethyl-1H-pyrazol-4-yl)phenyl)-4-hydroxycyclohexanecarboxamide] | ≤ 250 nM |
| COc1ccc([C@H]2CC[C@H](CN(c3cccc(-c4cnn(C)c4)c3)C(=O)[C@H]3CC[C@H](O)CC3)CC2)cc1C [Compound 2.01, trans-4-Hydroxy-N-((trans-4-(4-methoxy-3-methylphenyl)cyclohexyl)methyl)-N-(3-(1-methyl-1H-pyrazol-4-yl)phenyl)cyclohexanecarboxamide] | ≤ 250 nM |
| CCn1cc(-c2cccc(N(C[C@H]3CC[C@H](c4ccc(OC)c(C)c4)CC3)C(=O)[C@H]3CC[C@H](O)CC3)c2)cn1 [Compound 2.02, trans-N-(3-(1-Ethyl-1H-pyrazol-4-yl)phenyl)-4-hydroxy-N-((trans-4-(4-methoxy-3-methylphenyl)cyclohexyl)methyl)cyclohexanecarboxamide] | ≤ 250 nM |
| COc1ccc([C@H]2CC[C@H](CN(c3cccc(-c4cnn(C(C)C)c4)c3)C(=O)[C@H]3CC[C@H](O)CC3)CC2)cc1C#N [Compound 2.03, trans-N-((trans-4-(3-Cyano-4-methoxyphenyl)cyclohexyl)methyl)-4-hydroxy-N-(3-(1-isopropyl-1H-pyrazol-4-yl)phenyl)cyclohexanecarboxamide] | ≤ 250 nM |
| COc1ccc([C@H]2CC[C@H](CN(c3cccc(-c4cnn(C5CC5)c4)c3)C(=O)[C@H]3CC[C@H](O)CC3)CC2)cc1C#N [Compound 2.04, trans-N-((trans-4-(3-Cyano-4-methoxyphenyl)cyclohexyl)methyl)-N-(3-(1-cyclopropyl-1H-pyrazol-4-yl)phenyl)-4-hydroxycyclohexanecarboxamide] | ≤ 250 nM |
| COc1ccc([C@H]2CC[C@H](CN(c3cccc(-c4cnn(CC(F)F)c4)c3)C(=O)[C@H]3CC[C@H](O)CC3)CC2)cc1C [Compound 2.05, trans-N-(3-(1-(2,2-Difluoroethyl)-1H-pyrazol-4-yl)phenyl)-4-hydroxy-N-((trans-4-(4-methoxy-3-methylphenyl)cyclohexyl)methyl)cyclohexanecarboxamide] | ≤ 250 nM |
| COc1ccc([C@H]2CC[C@H](CN(c3cccc(-c4cnn(C(F)(F)F)c4)c3)C(=O)[C@H]3CC[C@H](O)CC3)CC2)cc1C [Compound 2.06, trans-4-Hydroxy-N-((trans-4-(4-methoxy-3-methylphenyl)cyclohexyl)methyl)-N-(3-(1-(trifluoromethyl)-1H-pyrazol-4-yl)phenyl)cyclohexanecarboxamide] | ≤ 250 nM |
| COc1ccc([C@H]2CC[C@H](CN(c3cc(-c4cnn(C5CC5)c4)ccn3)C(=O)[C@H]3CC[C@H](O)CC3)CC2)cc1C [Compound 2.07, trans-N-(4-(1-Cyclopropyl-1H-pyrazol-4-yl)pyridin-2-yl)-4-hydroxy-N-((trans-4-(4-methoxy-3-methylphenyl)cyclohexyl)methyl)cyclohexanecarboxamide] | ≤ 250 nM |
| COc1ccc(C23CCC(CN(c4cc(-c5cnn(C6CC6)c5)ccn4)C(=O)[C@H]4CC[C@H](O)CC4)(CC2)CC3)cc1C [Compound 2.08, trans-N-(4-(1-Cyclopropyl-1H-pyrazol-4-yl)pyridin-2-yl)-4-hydroxy-N-((4-(4-methoxy-3-methylphenyl)bicyclo[2.2.2]octan-1-yl)methyl)cyclohexanecarboxamide] | ≤ 250 nM |
| COc1ccc(C23CCC(CN(c4cc(-c5cnn(C(C)C)c5)ccn4)C(=O)[C@H]4CC[C@H](O)CC4)(CC2)CC3)cc1C [Compound 2.09] | ≤ 250 nM |
| COc1ccc([C@H]2CC[C@H](CN(c3cccc(-c4cnn(C5CC5)c4)c3)C(=O)[C@H]3CC[C@H](O)CC3)CC2)cc1C [Compound 3, trans-N-(3-(1-Cyclopropyl-1H-pyrazol-4-yl)phenyl)-4-hydroxy-N-((trans-4-(4-methoxy-3-methylphenyl)cyclohexyl)methyl)cyclohexanecarboxamide] | ≤ 250 nM |
| COc1ccc([C@H]2CC[C@H](CN(c3cccc(-c4ccn(C)n4)c3)C(=O)[C@H]3CC[C@H](O)CC3)CC2)cc1C [Compound 3.01, trans-4-Hydroxy-N-((trans-4-(4-methoxy-3-methylphenyl)cyclohexyl)methyl)-N-(3-(1-methyl-1H-pyrazol-3-yl)phenyl)cyclohexanecarboxamide] | ≥ 1000 nM |

Other lines, results leading:

| EC50 | Structure (SMILES) |
| --- | --- |
| ≤ 250 nM | COc1ccc([C@H]2CC[C@H](CN(c3cccc(-c4cnn(C(C)C)c4)c3)C(=O)[C@H]3CC[C@H](O)CC3)CC2)cc1C [Compound 3.02, trans-4-Hydroxy-N-(3-(1-isopropyl-1H-pyrazol-4-yl)phenyl)-N-((trans-4-(4-methoxy-3-methylphenyl)cyclohexyl)methyl)cyclohexanecarboxamide] |
| ≤ 250 nM | COc1ccc([C@H]2CC[C@H](CN(c3cccc(-c4cnn(CC(C)C)c4)c3)C(=O)[C@H]3CC[C@H](O)CC3)CC2)cc1C [Compound 3.03, trans-4-Hydroxy-N-(3-(1-isobutyl-1H-pyrazol-4-yl)phenyl)-N-((trans-4-(4-methoxy-3-methylphenyl)cyclohexyl)methyl)cyclohexanecarboxamide] |
| ≤ 250 nM | CCCn1cc(-c2cccc(N(C[C@H]3CC[C@H](c4ccc(OC)c(C)c4)CC3)C(=O)[C@H]3CC[C@H](O)CC3)c2)cn1 [Compound 3.04, trans-4-Hydroxy-N-((trans-4-(4-methoxy-3-methylphenyl)cyclohexyl)methyl)-N-(3-(1-propyl-1H-pyrazol-4-yl)phenyl)cyclohexanecarboxamide] |
| ≥ 1000 nM | COc1ccc([C@H]2CC[C@H](CN(c3cccc(-c4cnn(CCO)c4)c3)C(=O)[C@H]3CC[C@H](O)CC3)CC2)cc1C [Compound 3.05, trans-4-Hydroxy-N-(3-(1-(2-hydroxyethyl)-1H-pyrazol-4-yl)phenyl)-N-((trans-4-(4-methoxy-3-methylphenyl)cyclohexyl)methyl)cyclohexanecarboxamide] |
| ≥ 1000 nM | COc1ccc([C@H]2CC[C@H](CN(c3cccc(-c4cnn(CCN(C)C)c4)c3)C(=O)[C@H]3CC[C@H](O)CC3)CC2)cc1C [Compound 3.06, trans-N-(3-(1-(2-(Dimethylamino)ethyl)-1H-pyrazol-4-yl)phenyl)-4-hydroxy-N-((trans-4-(4-methoxy-3-methylphenyl)cyclohexyl)methyl)cyclohexanecarboxamide] |
| ≤ 250 nM | COc1ccc([C@H]2CC[C@H](CN(c3cccc(-c4cnn(CC(F)(F)F)c4)c3)C(=O)[C@H]3CC[C@H](O)CC3)CC2)cc1C [Compound 3.07, trans-4-Hydroxy-N-((trans-4-(4-methoxy-3-methylphenyl)cyclohexyl)methyl)-N-(3-(1-(2,2,2-trifluoroethyl)-1H-pyrazol-4-yl)phenyl)cyclohexanecarboxamide] |
| ≤ 250 nM | COc1ccc([C@H]2CC[C@H](CN(c3cccc(-c4cnn(C5CCC5)c4)c3)C(=O)[C@H]3CC[C@H](O)CC3)CC2)cc1C [Compound 3.08, trans-N-(3-(1-Cyclobutyl-1H-pyrazol-4-yl)phenyl)-4-hydroxy-N-((trans-4-(4-methoxy-3-methylphenyl)cyclohexyl)methyl)cyclohexanecarboxamide] |
| ≤ 250 nM | COc1ccc([C@H]2CC[C@H](CN(c3cccc(-c4cnn(C5COC5)c4)c3)C(=O)[C@H]3CC[C@H](O)CC3)CC2)cc1C [Compound 3.09, trans-4-Hydroxy-N-((trans-4-(4-methoxy-3-methylphenyl)cyclohexyl)methyl)-N-(3-(1-(oxetan-3-yl)-1H-pyrazol-4-yl)phenyl)cyclohexanecarboxamide] |
| ≤ 250 nM | COc1ccc([C@H]2CC[C@H](CN(c3cccc(-c4cnn(C5CCOCC5)c4)c3)C(=O)[C@H]3CC[C@H](O)CC3)CC2)cc1C [Compound 3.10, trans-4-Hydroxy-N-((trans-4-(4-methoxy-3-methylphenyl)cyclohexyl)methyl)-N-(3-(1-(tetrahydro-2H-pyran-4-yl)-1H-pyrazol-4-yl)phenyl)cyclohexanecarboxamide] |
| ≤ 250 nM | COc1ccc([C@H]2CC[C@H](CN(c3cccc(-c4cnn(C(F)F)c4)c3)C(=O)[C@H]3CC[C@H](O)CC3)CC2)cc1C [Compound 3.11, trans-N-(3-(1-(Difluoromethyl)-1H-pyrazol-4-yl)phenyl)-4-hydroxy-N-((trans-4-(4-methoxy-3-methylphenyl)cyclohexyl)methyl)cyclohexanecarboxamide] |
| ≤ 250 nM | COc1ccc([C@H]2CC[C@H](CN(c3cccc(-c4cnn(CCF)c4)c3)C(=O)[C@H]3CC[C@H](O)CC3)CC2)cc1C [Compound 3.12, trans-N-(3-(1-(2-Fluoroethyl)-1H-pyrazol-4-yl)phenyl)-4-hydroxy-N-((trans-4-(4-methoxy-3-methylphenyl)cyclohexyl)methyl)cyclohexanecarboxamide] |
